Test system: AhR2 from zebrafish
Assay: Fluorescence binding of the ligand probe to recombinant AhR protein (excitation 280 nm, emission 450 nm)
Text: The inventors expressed the encoding gene sequence for the AhR2 from zebrafish in Escherichia coli cells to produce the high yield of a 600 amino acid recombinant protein. The protein was purified by using Histidine tag affinity column. The protocol used allowed to obtain a good yield of pure protein that is correctly folded.
The inventors developed an assay for the Aryl Hydrocarbon Receptor binding activity as an alternative to known methods and investigated which molecules are the most suitable for building a competitive binding assay as in vitro ligands, and to make these molecules fluorescent or more fluorescent. […] The same concentration of ethyl 5,11-dihydroindolo[3,2-b]carbazole-6-carboxylate in aqueous buffer environment has a very low fluorescence signal (FIG. 1, bottom line at 328 nm). […] Indeed if ethyl 5,11-dihydroindolo[3,2-b]carbazole-6-carboxylate is a ligand of AhR it moves from an aqueous environment (buffer) to a more hydrophobic environment (hydrophobic internal binding site of the AhR receptor), causing the increase in fluorescence emission at 450 nm.

CCOC(=O)c1c2[nH]c3ccccc3c2cc2[nH]c3ccccc3c12 [ethyl 5,11-dihydroindolo[3,2-b]carbazole-6-carboxylate]
fluorescence emission on addition to the AhR (binding into the active site) (excited at 280 nm, buffer environment, FIG. 1): causes the appearance of an emission peak with maximum at 450 nm
binding affinity to AhR (result in words, suitability for competitive binding assays): high enough to allow the competition of other compounds to the receptor, yet not too high

Source: patent US10830772B2, “Detection method and kit” (The European Union, represented by the European Commission, priority 2015, dated 2020)
